{"source": "patent US20030008309A1", "about": "“Microarrays and methods for evaluating activity of compounds having estrogen-like activity” (National Institute of Advanced Industrial Science and …, priority 2000, published 2003)", "test_system": "MCF-7 cells", "assay": "Microarray evaluation of estrogen-like activity (expression levels of estrogen-responsive genes/ESTs, Cy3/Cy5) in MCF-7 cells"}
{"compound": "Clc1cc2c(cc1Cl)Oc1cc(Cl)c(Cl)cc1O2", "note": "[dioxin, 2,3,7,8-tetrachlorodibenzo-p-dioxin]", "values": [{"measurement": "evaluation value considering weighting factor (K)", "value": 32.90}, {"measurement": "Σ(E(example)n), summation value of expression levels", "setting": "10 nM treatment, n=1 to 203, independently determined", "value": 207.49}, {"measurement": "evaluation value = Σ[|log{BDE(A)n/BDE(Estrogen)n}|], n=1 to 203", "setting": "listed as example 2", "value": 46.19}]}
